Columns and labels:
[1] = tested on: excised human nerve tissue (or nerve extracts); assay: Phage display library screening (Example 2), NEB tissue-binding peptides: nerve tissue and nerve extracts versus muscle; conditions: unique sequence count, peptides not binding muscle extracts; for Count Excised Nerve: tissue target: excised nerve; for Count Nerve Extract: tissue target: nerve extract; for Count Neuron: tissue target: neuron
Experimental: Phage display library screens were used to identify peptides that bind to target proteins (including specific laminin trimers) that are expressed in human nerves, as described in Table 3. These screens were also carried out to identify peptides that could bind selectively to nerves versus muscle. Such peptides could therefore be useful for systemic in-vivo labeling of nerves during fluorescence assisted surgery. Specifically, m 13 phage libraries expressing 7 or 12 random amino acid peptides, or a cyclic peptide CX7C, on the N-terminus of the minor coat protein pIII (New England Biolabs; NEB) were processed through multiple rounds of selection for binding to target proteins expressed in nerves, or to excised human nerves, nerve extracts, or muscle, as described further below.
To identify peptides selective for nerves versus muscle, phage from the same libraries used for specific target proteins were used to screen against excised human nerve tissue (or nerve extracts) and human muscle tissue.
Excised Nerve Tissue: Phage were processed through multiple cycles of selection, with representative phage being isolated and sequenced after each selection cycle. Specifically, for selection using human nerve tissue, a sample of […] tissue (2 mm by 2 mm) was washed prior to mixing and incubation with a phage library. After incubation, the mixture (containing mostly intact nerves with phage particles that had variable affinity for nerves) was centrifuged and the nerve pellet washed multiple times with PBS to remove phage with little or no affinity for nerve tissue. The pellet was homogenized and plated for titering and reamplification. Phage that were bound at each round were sequenced. NextGen sequencing of pools after 2, 3 and 4 rounds of selection were used to isolate candidate sequences that were further analyzed using bioinformatics.
Nerve Extracts: Phage libraries were incubated for up to 24 hours at 4° C. in 96 well plates that had been coated with a human nerve extract. Plates were then washed with PBS and phage were eluted using 0.2M glycine pH 2.0. Phage supernatants where then neutralized with Tris pH 9.0 prior to plating on TG1 bacteria and LB agar plates. Colonies were counted to determine titer followed by DNA preparation of pools of phage and NextGen sequencing. After rounds of selection, phage were pooled and amplified for iterative selection. Phage that eluted by 0.2M glycine pH 2.0 (the nerve binders) at each round were sequenced. NextGen sequencing of pools after 2, 3 and 4 rounds of selection were used to isolate candidate sequences that were further analyzed using bioinformatics.
Muscle Tissue: Phage were processed through multiple cycles of selection, with representative phage being isolated and sequenced after each selection cycle. Specifically, for selection using human skeletal muscle tissue, a sample of skeletal muscle tissue (2 mm by 2 mm) was washed prior to mixing and incubation with a phage library. After incubation, the mixture (containing mostly intact muscle with phage particles that had variable affinity for muscle) was centrifuged and the muscle pellet washed multiple times with PBS to remove phage with little or no affinity for muscle tissue. The pellet was then homogenized and plated for titering and reamplification. Phage that were bound at each round were sequenced. NextGen sequencing of pools after 2, 3 and 4 rounds of selection were used to isolate candidate sequences that were further analyzed using bioinformatics.
For all NEB sequence datasets, a python script was used to translate, trim, and filter the peptide sequences (see details above). A python script was used to group peptides from different assays according to tissue target (muscle, nerve, neuron, or nerve extract) and combine the unique sequence counts for each peptide. […]

Laminin 421/521 = assay: phage display, NGS count

Molecule	Count Excised Nerve [1]	Count Nerve Extract [1]	Count Neuron [1]	Count (Laminin 421/521)
TSAHHDRTLAGS	6	12	6	
VERLNWPKRMQS	27	43	16	
VESGHAYSVSSW	14	20	6	
VNYQTPWNKHWY	10	21	11	
VPVPKKMSLDPT	8	14	6	
VRLPMLASMGHQ	19	40	21	
VRSDMVSGGLQK	14	20	6	
VTDMLGIPKLHA	18	28	10	
WDVAWLERRALH	23	43	20	
WEKHTGPLSRYL	6	19	13	
WPLKRFEQLPLK	6	14	8	
WSGGMEDNSNRL	9	18	9	
WVGPDIIAQMRI	8	16	8	
YAGQNGWMRSDL	28	45	17	
YANGIEAKDSSR	14	20	6	
YAWDTVASRNYK	14	20	6	
YSANSNPKKSLM	11	17	6	
EDRMMTYRYTST				29
RALDRYLPWSPH				28
GWTSDLSRNVRG				28
SVLSTGTANQRH				28
AQNLRVHAWASL				28

Molecule	Count Excised Nerve [1]	Count Nerve Extract [1]	Count Neuron [1]	Count (Laminin 421/521)
DRMYSTVPAEGL				27
QPTPSQIKFTRT				28
ETGGLAYGSGQK				28
CTSSSHQTC				28
TSAVSLR				27
CTGETLLTC				28
QLQHVHL				28
AVRPLGLPDNHR				29
TVARSTAQERSI				28
CTDGRNFVC				28
HPAWADFFTMSS				29
CKSPIKGTC				27
CVLKCEDQKYRG				27
SVVGWAAPRTAQ				27
SLPYAASLNSVE				28
VIADQSKSAVAV				27
FNSDSRSTHQED				29
TALSHRHEAMRW				28
CIGGPHRNC				29
IDLSLRS				29
GIVPSRHTTGLG				28
LGSSRSPSSFLG				29

Molecule	Count Excised Nerve [1]	Count Nerve Extract [1]	Count Neuron [1]	Count (Laminin 421/521)
EAVSTQI				27
CLQKNHKFC				27
CKSPAIKGC				29
KFADTKLTSLRY				28
NGHEVQSRAANR				29
TILKPAAQGFAD				27
SYTATWSEMSRS				28
IDQSGLQKSGMK				29
HQSVTGVRSHFH				27
SWHFTGTPFMNR				28
HTQIHRL				28
TKGIAPK				28
EVERILTPHVNN				29
CPMHQSKTC				28
CNSWKAAKC				29
TTLWLDRDEALK				27
DSLYRGMHQPRI				29
STNVQRA				28
SVQTPMWRSLVG				28
GINLRALDLHAN				27
